Species on record: Rattus norvegicus
Assay: Open TG-GATES - Regimen: Single
Format: toxicity, organism-based, Sprague-Dawley
Parameters: regimen Single, gender Male, age 6 weeks
Conditions: in vivo, po, route gavage; for APTT / Bas / Eos / Fbg / Ht / Lym / MCH / MCHC / MCV / Mono / Neu / PT / Plat / RBC / Ret / WBC: tissue Blood; for KIDNEY_L / KIDNEY_R / KIDNEY_TOTAL: tissue Kidney; for LIVER: tissue Liver; for ALP / ALT / AST / BUN / CRE / Ca / Cl / DBIL / GLC / IP / K / LDH / Na / PL / RALB / TBIL / TC / TG / TP / gamma-GTP: tissue Plasma
[1] = 30 mg/kg, 3 h, dose level Middle
[2] = 30 mg/kg, 6 h, dose level Middle
[3] = 30 mg/kg, 9 h, dose level Middle
[4] = 30 mg/kg, 24 h, dose level Middle
[5] = 100 mg/kg, 3 h, dose level High
[6] = 100 mg/kg, 6 h, dose level High
[7] = 100 mg/kg, 9 h, dose level High
[8] = 100 mg/kg, 24 h, dose level High

Cc1cccc(Nc2cc(Cl)nc(SCC(=O)O)n2)c1C [PIRINIXIC ACID]
TERMINAL_BW [1]: 204.3 g
APTT [1]: 17.1 s
Bas [1]: 0%
Eos [1]: 0.4%
Fbg [1]: 275 mg/dL
Ht [1]: 39.7%
Lym [1]: 77.6%
MCH [1]: 21.5 pg
MCHC [1]: 34.3%
MCV [1]: 62.6 fL
Mono [1]: 3%
Neu [1]: 18%
PT [1]: 12.5 s
Plat [1]: 130.4 x10_4/uL
RBC [1]: 634 x10_4/ul
Ret [1]: 7.9%
WBC [1]: 74.5 x10_2/uL
KIDNEY_L [1]: 0.9 g
KIDNEY_R [1]: 0.9 g
KIDNEY_TOTAL [1]: 1.8 g
LIVER [1]: 8.9 g
ALP [1]: 1689.8 IU/L
ALT [1]: 49.2 IU/L
AST [1]: 74 IU/L
BUN [1]: 9 mg/dL
CRE [1]: 0.1 mg/dL
Ca [1]: 11 mg/dL
Cl [1]: 103.8 meq/L
DBIL [1]: 0.088 mg/dL
GLC [1]: 184.2 mg/dL
IP [1]: 10.1 mg/dL
K [1]: 3.9 meq/L
LDH [1]: 65.6 IU/L
Na [1]: 139.8 meq/L
PL [1]: 172.4 mg/dL
RALB [1]: 2.7 g/dL
TBIL [1]: 0.052 mg/dL
TC [1]: 79 mg/dL
TG [1]: 251.8 mg/dL
TP [1]: 5.8 g/dL
gamma-GTP [1]: 1 IU/L
TERMINAL_BW [2]: 205.1 g
APTT [2]: 16.2 s
Bas [2]: 0%
Eos [2]: 1%
Fbg [2]: 274.6 mg/dL
Ht [2]: 40.3%
Lym [2]: 70.8%
MCH [2]: 20.8 pg
MCHC [2]: 34.1%
MCV [2]: 61 fL
Mono [2]: 2.4%
Neu [2]: 25.4%
PT [2]: 12.4 s
Plat [2]: 117.5 x10_4/uL
RBC [2]: 661.2 x10_4/ul
Ret [2]: 7.5%
WBC [2]: 71.7 x10_2/uL
KIDNEY_L [2]: 0.9 g
KIDNEY_R [2]: 0.9 g
KIDNEY_TOTAL [2]: 1.7 g
LIVER [2]: 8.2 g
ALP [2]: 1624.2 IU/L
ALT [2]: 46.6 IU/L
AST [2]: 77.8 IU/L
BUN [2]: 8.8 mg/dL
CRE [2]: 0.2 mg/dL
Ca [2]: 10.7 mg/dL
Cl [2]: 105.4 meq/L
DBIL [2]: 0.036 mg/dL
GLC [2]: 177.8 mg/dL
IP [2]: 10.7 mg/dL
K [2]: 4.3 meq/L
LDH [2]: 59.8 IU/L
Na [2]: 139.6 meq/L
PL [2]: 149.4 mg/dL
RALB [2]: 2.6 g/dL
TBIL [2]: 0.046 mg/dL
TC [2]: 76.4 mg/dL
TG [2]: 115.4 mg/dL
TP [2]: 5.4 g/dL
gamma-GTP [2]: 1.4 IU/L
TERMINAL_BW [3]: 204.7 g
APTT [3]: 15.6 s
Bas [3]: 0%
Eos [3]: 0.6%
Fbg [3]: 267.4 mg/dL
Ht [3]: 38.8%
Lym [3]: 78.8%
MCH [3]: 21.1 pg
MCHC [3]: 34.3%
MCV [3]: 61.4 fL
Mono [3]: 2%
Neu [3]: 18%
PT [3]: 12.3 s
Plat [3]: 121.4 x10_4/uL
RBC [3]: 631.6 x10_4/ul
Ret [3]: 7.8%
WBC [3]: 66.7 x10_2/uL
KIDNEY_L [3]: 0.9 g
KIDNEY_R [3]: 0.8 g
KIDNEY_TOTAL [3]: 1.7 g
LIVER [3]: 7.9 g
ALP [3]: 1566.2 IU/L
ALT [3]: 35.8 IU/L
AST [3]: 65.8 IU/L
BUN [3]: 9.6 mg/dL
CRE [3]: 0.2 mg/dL
Ca [3]: 10.5 mg/dL
Cl [3]: 104.2 meq/L
DBIL [3]: 0.026 mg/dL
GLC [3]: 185.8 mg/dL
IP [3]: 11.1 mg/dL
K [3]: 3.9 meq/L
LDH [3]: 61.6 IU/L
Na [3]: 140.6 meq/L
PL [3]: 122.8 mg/dL
RALB [3]: 2.6 g/dL
TBIL [3]: 0.038 mg/dL
TC [3]: 67.8 mg/dL
TG [3]: 68.8 mg/dL
TP [3]: 5.3 g/dL
gamma-GTP [3]: 1.4 IU/L
TERMINAL_BW [4]: 211.1 g
APTT [4]: 16.1 s
Bas [4]: 0%
Eos [4]: 1.2%
Fbg [4]: 216.4 mg/dL
Ht [4]: 39.1%
Lym [4]: 76.2%
MCH [4]: 21.4 pg
MCHC [4]: 34.5%
MCV [4]: 61.9 fL
Mono [4]: 3%
Neu [4]: 19.6%
PT [4]: 13 s
Plat [4]: 110.1 x10_4/uL
RBC [4]: 632.4 x10_4/ul
Ret [4]: 6.8%
WBC [4]: 75.4 x10_2/uL
KIDNEY_L [4]: 0.9 g
KIDNEY_R [4]: 0.9 g
KIDNEY_TOTAL [4]: 1.8 g
LIVER [4]: 10.2 g
ALP [4]: 1775.4 IU/L
ALT [4]: 51.8 IU/L
AST [4]: 73.4 IU/L
BUN [4]: 14.4 mg/dL
CRE [4]: 0.2 mg/dL
Ca [4]: 10.7 mg/dL
Cl [4]: 104 meq/L
DBIL [4]: 0.018 mg/dL
GLC [4]: 189.6 mg/dL
IP [4]: 8.6 mg/dL
K [4]: 4 meq/L
LDH [4]: 58 IU/L
Na [4]: 141.6 meq/L
PL [4]: 111.4 mg/dL
RALB [4]: 2.6 g/dL
TBIL [4]: 0.03 mg/dL
TC [4]: 59.2 mg/dL
TG [4]: 37.6 mg/dL
TP [4]: 5.3 g/dL
gamma-GTP [4]: 1.2 IU/L
TERMINAL_BW [5]: 203.1 g
APTT [5]: 16 s
Bas [5]: 0%
Eos [5]: 0.8%
Fbg [5]: 246.6 mg/dL
Ht [5]: 38.5%
Lym [5]: 76.8%
MCH [5]: 21.8 pg
MCHC [5]: 34.4%
MCV [5]: 63.3 fL
Mono [5]: 3%
Neu [5]: 18.2%
PT [5]: 12.6 s
Plat [5]: 113.6 x10_4/uL
RBC [5]: 607.8 x10_4/ul
Ret [5]: 7.7%
WBC [5]: 82.7 x10_2/uL
KIDNEY_L [5]: 0.9 g
KIDNEY_R [5]: 0.8 g
KIDNEY_TOTAL [5]: 1.7 g
LIVER [5]: 8.8 g
ALP [5]: 1788.2 IU/L
ALT [5]: 54.6 IU/L
AST [5]: 82.6 IU/L
BUN [5]: 11 mg/dL
CRE [5]: 0.2 mg/dL
Ca [5]: 11 mg/dL
Cl [5]: 102.2 meq/L
DBIL [5]: 0.046 mg/dL
GLC [5]: 179.8 mg/dL
IP [5]: 10.4 mg/dL
K [5]: 4 meq/L
LDH [5]: 69.8 IU/L
Na [5]: 139.2 meq/L
PL [5]: 156.6 mg/dL
RALB [5]: 2.5 g/dL
TBIL [5]: 0.058 mg/dL
TC [5]: 80.8 mg/dL
TG [5]: 120.2 mg/dL
TP [5]: 5.4 g/dL
gamma-GTP [5]: 1 IU/L
TERMINAL_BW [6]: 202.6 g
APTT [6]: 16 s
Bas [6]: 0%
Eos [6]: 0.6%
Fbg [6]: 267.4 mg/dL
Ht [6]: 39.4%
Lym [6]: 74%
MCH [6]: 21.5 pg
MCHC [6]: 34.3%
MCV [6]: 62.6 fL
Mono [6]: 2.4%
Neu [6]: 22.2%
PT [6]: 12.1 s
Plat [6]: 116.2 x10_4/uL
RBC [6]: 628.6 x10_4/ul
Ret [6]: 7.5%
WBC [6]: 72.4 x10_2/uL
KIDNEY_L [6]: 0.9 g
KIDNEY_R [6]: 0.9 g
KIDNEY_TOTAL [6]: 1.7 g
LIVER [6]: 7.8 g
ALP [6]: 1738.4 IU/L
ALT [6]: 52 IU/L
AST [6]: 81.4 IU/L
BUN [6]: 9.4 mg/dL
CRE [6]: 0.2 mg/dL
Ca [6]: 10.6 mg/dL
Cl [6]: 104.6 meq/L
DBIL [6]: 0.036 mg/dL
GLC [6]: 178.6 mg/dL
IP [6]: 10.9 mg/dL
K [6]: 4.3 meq/L
LDH [6]: 54.6 IU/L
Na [6]: 139.4 meq/L
PL [6]: 152.4 mg/dL
RALB [6]: 2.5 g/dL
TBIL [6]: 0.052 mg/dL
TC [6]: 80.4 mg/dL
TG [6]: 105.4 mg/dL
TP [6]: 5.3 g/dL
gamma-GTP [6]: 1.6 IU/L
TERMINAL_BW [7]: 203.7 g
APTT [7]: 16.5 s
Bas [7]: 0%
Eos [7]: 0.4%
Fbg [7]: 248 mg/dL
Ht [7]: 40%
Lym [7]: 79.6%
MCH [7]: 21.8 pg
MCHC [7]: 34.3%
MCV [7]: 63.6 fL
Mono [7]: 1.8%
Neu [7]: 17.8%
PT [7]: 12.4 s
Plat [7]: 109.8 x10_4/uL
RBC [7]: 628.8 x10_4/ul
Ret [7]: 8.1%
WBC [7]: 76 x10_2/uL
KIDNEY_L [7]: 0.9 g
KIDNEY_R [7]: 0.9 g
KIDNEY_TOTAL [7]: 1.8 g
LIVER [7]: 7.8 g
ALP [7]: 2137.8 IU/L
ALT [7]: 46 IU/L
AST [7]: 74.2 IU/L
BUN [7]: 9.6 mg/dL
CRE [7]: 0.2 mg/dL
Ca [7]: 10.5 mg/dL
Cl [7]: 104.4 meq/L
DBIL [7]: 0.028 mg/dL
GLC [7]: 192 mg/dL
IP [7]: 11 mg/dL
K [7]: 4 meq/L
LDH [7]: 58.8 IU/L
Na [7]: 140.8 meq/L
PL [7]: 115.2 mg/dL
RALB [7]: 2.6 g/dL
TBIL [7]: 0.04 mg/dL
TC [7]: 59.4 mg/dL
TG [7]: 85.2 mg/dL
TP [7]: 5.4 g/dL
gamma-GTP [7]: 1.2 IU/L
TERMINAL_BW [8]: 210.5 g
APTT [8]: 16.2 s
Bas [8]: 0%
Eos [8]: 1%
Fbg [8]: 206.8 mg/dL
Ht [8]: 38.4%
Lym [8]: 76%
MCH [8]: 21.8 pg
MCHC [8]: 34.5%
MCV [8]: 63.3 fL
Mono [8]: 2.6%
Neu [8]: 20.2%
PT [8]: 13.1 s
Plat [8]: 109.5 x10_4/uL
RBC [8]: 607 x10_4/ul
Ret [8]: 7.2%
WBC [8]: 74.1 x10_2/uL
KIDNEY_L [8]: 0.9 g
KIDNEY_R [8]: 1 g
KIDNEY_TOTAL [8]: 1.9 g
LIVER [8]: 10.5 g
ALP [8]: 1720.8 IU/L
ALT [8]: 53.4 IU/L
AST [8]: 77.4 IU/L
BUN [8]: 14.2 mg/dL
CRE [8]: 0.2 mg/dL
Ca [8]: 10.7 mg/dL
Cl [8]: 104.2 meq/L
DBIL [8]: 0.018 mg/dL
GLC [8]: 195.4 mg/dL
IP [8]: 8.6 mg/dL
K [8]: 4 meq/L
LDH [8]: 60.4 IU/L
Na [8]: 142.2 meq/L
PL [8]: 96.4 mg/dL
RALB [8]: 2.6 g/dL
TBIL [8]: 0.026 mg/dL
TC [8]: 50.2 mg/dL
TG [8]: 31.4 mg/dL
TP [8]: 5.2 g/dL
gamma-GTP [8]: 1.2 IU/L

— ChEMBL document CHEMBL3885861, “Open TG-GATES”
